Read-outs that look alike come from different tables or passages of the source.
Legend:
CO in intact RBL-1 cells = assay: CO inhibition in intact RBL-1 cells (Procedure III); assay type: cell-based, rat; conditions: superscript = number of experiments, read-out: PROC. III IC50 CO
Procedure: The ability to inhibit 5-LO and CO in intact RBL-1 cells was also evaluated. RBL-1 cells were maintained in culture in minimal essential medium (Bio*Whittaker, Walkersville, MD), containing 12.5% fetal calf serum, 10 mg/mL streptomycin, 10 I.U./mL penicillin G, […] gentamycin and 2 mM L-glutamine (Bio*Whittaker, Walkersville, MD). Cells were collected by centrifugation, washed once in HBSS, and resuspended at a concentration of 1×10^5 cells/mL. Cells were incubated in the presence of vehicle or drug then centrifuged at 800×g for 10 minutes at 4° C. The supernatant was removed by aspiration and the cells were resuspended in 0.5 mL of HBSS. The reaction was started by the addition of 20 μg/mL of calcium ionophore A-23187 (mixed calcium and magnesium salts, Calbiochem, La Jolla CA) and allowed to proceed for 15 minutes, then stopped by plunging the tubes into a slush ice bath. The conversion of AA to 5-LO products was initiated by the addition of 10 μL (50 uCi) of 1-^14 C-AA. Products were isolated by acidification and extraction, followed by thin layer chromatography analysis as described above. Radioactive areas corresponding to authentic 5-LO and CO products were quantitated by the Bioscan 2000 Imaging System.

[1] = target: T1, RBL-1 cell cyclooxygenase (Rattus norvegicus, UniProt Q63921); assay: RBL-1 cell cyclooxygenase, cell homogenate supernatant (Procedure II); assay type: biochemical; conditions: RBL-1 homogenate; for inhibition at 3 µM: read-out: PROC. II % INHIBITION CO; for IC50: read-out: PROC. II IC50 CO
T1 construct: the supernatant was saved as the source of enzymes; endogenous in cells; host or cells: RBL-1 rat basophilic leukemia cells, homogenate supernatant
T1 sequence (Q63921 27-602): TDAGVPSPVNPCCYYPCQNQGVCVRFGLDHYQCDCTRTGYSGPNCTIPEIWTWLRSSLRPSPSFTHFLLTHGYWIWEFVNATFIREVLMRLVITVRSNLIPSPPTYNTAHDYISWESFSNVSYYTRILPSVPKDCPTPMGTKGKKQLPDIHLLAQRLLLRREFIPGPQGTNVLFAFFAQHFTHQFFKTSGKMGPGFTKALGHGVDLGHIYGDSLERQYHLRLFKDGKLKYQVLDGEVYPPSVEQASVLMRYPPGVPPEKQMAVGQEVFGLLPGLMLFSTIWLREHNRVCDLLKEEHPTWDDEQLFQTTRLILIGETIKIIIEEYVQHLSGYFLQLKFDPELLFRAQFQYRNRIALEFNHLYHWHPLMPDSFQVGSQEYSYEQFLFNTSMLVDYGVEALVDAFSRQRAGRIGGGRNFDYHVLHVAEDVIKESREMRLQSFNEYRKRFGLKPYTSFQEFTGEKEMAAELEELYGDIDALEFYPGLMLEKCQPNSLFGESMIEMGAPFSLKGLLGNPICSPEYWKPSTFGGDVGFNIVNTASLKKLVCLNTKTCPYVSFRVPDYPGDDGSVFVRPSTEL
Procedure: RBL-1 cell 5-lipoxygenase and cyclooxygenase
Rat basophilic leukemia cells (RBL-1; 5×10^7 viable cells/mL) were disrupted by homogenization on ice (four 20 sec bursts) with a Brinkman polytron. Complete cell breakage was verified microscopically. The homogenate was then centrifuged at 10,000×g for 48 minutes at 4° C. The pellet was discarded and the supernatant was saved as the source of enzymes. The supernatant was pre-incubated for five minutes at 37° C. in the presence of 2 mM of CaCl2 and compound or vehicle (1% DMSO). The conversion of AA into 5-LO products was initiated by adding 10 μL (50 μCi) of 1-^14 C-AA to each tube and incubated at 37° C. for 20 minutes. The reaction was stopped by adjusting the pH of each sample to 3 to 3.5 with 2M formic acid. Samples were extracted with three volumes of chloroform to isolate the products of 5-LO formed during the reaction. Fractions were dried under nitrogen, then resuspended in 40 μL of chloroform and spotted onto silica gel HL plates. The plates were developed in A-9 solvent. The dried plates were analyzed using a Bioscan Imaging TLC scanner to determine the percentage of radiolabelled AA converted to 5-HETE in each sample.

5-LO = assay: Ex vivo eicosanoid synthesis in dog whole blood, 5-LO (LTB4) (Procedure IV); conditions: Canis lupus familiaris, oral, read-out: PROC. IV % INHIB/HOURS 5-LO; for inhibition at 5 mg/kg: 5 MPK, 6 hours
Procedure: (§1) Ex Vivo eicosanoid synthesis in dog whole blood. Adult beagle or mongrel dogs (10-15 kg) of either sex were fasted overnight prior to the initiation of each experiment. The forelimb was clipped and swabbed with an alcohol prep (70% isopropanol). Blood was drawn by venipuncture into syringes containing lithium heparin (Starstead, Newton NC) immediately prior to administration of compound or vehicle and then at various intervals following dosing. The test compound was administered orally as a suspension in 0.5% methocel. At various times after dosing, blood samples were drawn and placed on an electric rocker platform to assure complete and continuous mixing. White blood cell (wbc) counts were performed using a Sysmex hematology analyzer. This was done in an effort to normalize the number of leukocytes to be stimulated with calcium ionophore. A 1.0 mL aliquot of whole blood was challenged with 50 μL of a 2.6×10^-5 M solution of calcium ionophore A23187 (Calbiochem, La Jolla, CA) prepared in DMSO and diluted in HBSS. After a 15 minute incubation at 37° C., the reaction was stopped by placing the samples in an ice bath (4° C.) for 5 minutes and then centrifuged at 11,000×g for 5 minutes to separate the plasma fraction from blood cells. The plasma fraction was removed, diluted in an appropriate buffer, and analyzed for the presence of LTB4 and prostaglandin F2α or TxB2 by standard RIA techniques. […]

CO = assay: Ex vivo eicosanoid synthesis in dog whole blood, CO (prostaglandin F2α or TxB2) (Procedure IV); conditions: Canis lupus familiaris, oral, read-out: PROC. IV % INHIB/HOURS CO; for inhibition at 5 mg/kg: 5 MPK
Procedure: as §1

Compound | IC50 (CO in intact RBL-1 cells) [nM] | inhibition at 3 µM [1] [%] | IC50 [1] [nM] | inhibition at 5 mg/kg (5-LO) [%] | inhibition at 5 mg/kg (CO; 24 hours) [%] | inhibition at 1 mg/kg (5-LO; 1 MPK, 2 hours) [%] | inhibition at 1 mg/kg (CO; 1 MPK, 2 hours) [%] | inhibition at 5 mg/kg (CO; 6 hours) [%]
COc1ccc(-n2nc(CSC(=S)N(C)O)c(Cl)c2-c2ccc(Cl)cc2)cc1 [1-C] | 2400 | 75 |  |  |  |  |  | 
COc1ccc(-n2nc(CSC(=S)N(O)C(C)C)c(Cl)c2-c2ccc(Cl)cc2)cc1 [1-D] |  | 0 | 1670 | 2 | 32 |  |  | 
COc1ccc(-n2nc(CSC(=S)N(O)C(C)C)c(Br)c2-c2ccc(Cl)cc2)cc1 [1-E] | 6500 | 0 | 1960 | 41 |  |  |  | 31

Now from value to compound, other results behind:

IC50 (CO in intact RBL-1 cells) [nM] | inhibition at 3 µM [1] [%] | IC50 [1] [nM] | Compound | inhibition at 5 mg/kg (5-LO) [%] | inhibition at 5 mg/kg (CO; 24 hours) [%] | inhibition at 1 mg/kg (5-LO; 1 MPK, 2 hours) [%] | inhibition at 1 mg/kg (CO; 1 MPK, 2 hours) [%] | inhibition at 5 mg/kg (CO; 6 hours) [%]
1600 | 95 |  | COc1ccc(-n2nc(CSC(=S)N(C)O)c(Cl)c2-c2ccc(C)cc2)cc1 [1-H] |  |  |  |  | 
1400 | 100 | 8070 | COc1ccc(-n2nc(CSC(=S)N(O)C(C)C)cc2-c2ccc(Cl)cc2)cc1 [1-B] |  |  | 36 | 77 | 
180 | 30 | 30 | COc1ccc(-n2nc(CSC(=S)N(O)C(C)C)cc2-c2ccc(C)cc2)cc1 [1-G] |  |  |  |  | 

Source: patent publication US5298521A, “1,5-diphenyl-3-pyrazolylalkyl-N-hydroxydithiocaramates, compositions and use” (Ortho Pharmaceutical Corporation, priority 1993, dated 1994)
